Test results as given in patent US7425640B2, “Substituted 5-carboxyamide pyrazoles and [1,2,4]triazoles as antiviral agents” (priority 2004, dated 2008).

Each compound was assayed against HCV RNA-dependent RNA polymerase NS5B (Δ21) (Hepatitis C virus genotype 1b, UniProt P26663) (assay: Assay for HCV RNA-dependent RNA polymerase activity (SPA, [3H]-GTP incorporation)). Conditions: read-out: Δ21 Activity (IC50 μM); 50 nM NS5B (Δ21), class symbols.
Sequence of HCV RNA-dependent RNA polymerase NS5B (Δ21) (P26663 2420-2989, stated change not applied): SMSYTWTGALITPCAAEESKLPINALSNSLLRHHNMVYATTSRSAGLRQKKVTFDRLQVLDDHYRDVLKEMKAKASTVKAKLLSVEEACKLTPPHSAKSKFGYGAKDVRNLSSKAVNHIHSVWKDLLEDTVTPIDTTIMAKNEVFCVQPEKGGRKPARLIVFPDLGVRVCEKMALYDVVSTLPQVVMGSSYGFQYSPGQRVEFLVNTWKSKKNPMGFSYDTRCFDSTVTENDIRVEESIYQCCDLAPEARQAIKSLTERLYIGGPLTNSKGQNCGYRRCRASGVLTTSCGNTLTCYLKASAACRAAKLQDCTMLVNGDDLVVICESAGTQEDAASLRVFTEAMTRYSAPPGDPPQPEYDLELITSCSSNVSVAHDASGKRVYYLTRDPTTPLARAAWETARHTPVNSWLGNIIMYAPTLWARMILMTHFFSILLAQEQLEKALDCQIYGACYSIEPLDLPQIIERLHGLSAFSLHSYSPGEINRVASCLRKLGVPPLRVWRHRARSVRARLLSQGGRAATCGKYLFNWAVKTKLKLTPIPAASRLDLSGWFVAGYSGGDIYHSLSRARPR
Format: biochemical
Experimental: Inhibitory activity of the present compounds against HCV RNA-dependent RNA polymerase was assayed according to the methods disclosed in United States Patent Application US2004/038993, content of which is incorporated herein by reference; and those described in Ferrari, E.; Wright-Minogue, J.; Fang, J. W. S.; Baroudy, B. M.; Lau, J. Y. N.; Hong, Z. J. Virol. 1999, 73, 1649.
Briefly, 50 μl reactions containing 20 mM HEPES (pH 7.3), 7.5 mM DTT, 20 units/ml RNasIN, 0.5 μg/ml biotinylated oligoG12, 5 μg/ml polyC, 5 μM GTP, 20 μCi/ml [^3H]-GTP, 10 mM MgCl2, 60 mM NaCl, 100 μg/ml BSA, and 50 nM NS5B (Δ21) were incubated at room temperature for three hours in 96-well plates with or without test compounds. Assay was terminated by the addition of 50 μl 10 mg/ml streptavidin-coated SPA beads supplemented with 100 mM EDTA, and the incorporation of labeled GTP determined by a TopCount Scintillation Counter. IC50 values were calculated from single experiments using 11 serial 2-fold dilutions (0.05-50 μM), and data were considered reliable only when the IC50 value of a positive internal control was within standard deviation range.
Work on `Cc1ccc(OCC2CCCCC2)c(NC(=O)c2cc(C(=O)Nc3nnn[nH]3)nn2CC(=O)N[C@H]2CCCC[C@@H]2OCc2ccccc2)c1` [Compound 125] yielded an IC50 of 0.1 to 1 µM.
`CC(CNC(=O)c1cc(C(=O)N[C@H]2CCCC[C@@H]2OCc2ccccc2)n(CC(=O)N[C@H]2CCCC[C@@H]2OCc2ccccc2)n1)c1ccccc1` (some centres unmarked) [Compound 117] was tested, and the IC50 was 0.1 to 1 µM.
`CCCCNC(=O)Nc1cc(C(=O)N[C@H]2CCCC[C@@H]2OCc2ccccc2)n(CC(=O)N[C@H]2CCCC[C@@H]2OCc2ccccc2)n1` [Compound 124] showed an IC50 of 0.1 to 1 µM.
In the case of `CC(C)(C)c1ccc(S(=O)(=O)Nc2cc(C(=O)N[C@H]3CCCC[C@@H]3OCc3ccccc3)n(CC(=O)N[C@H]3CCCC[C@@H]3OCc3ccccc3)n2)cc1` [Compound 87], the IC50 is reported as 0.1 to 1 µM.
For `CCCCOCCCNC(=O)c1cc(C(=O)N[C@H]2CCCC[C@@H]2OCc2ccccc2)n(CC(=O)N[C@H]2CCCC[C@@H]2OCc2ccccc2)n1` [Compound 93], the IC50 was 0.1 to 1 µM.
With `O=C(Cn1nc(NS(=O)(=O)c2ccc([N+](=O)[O-])cc2)cc1C(=O)N[C@H]1CCCC[C@@H]1OCc1ccccc1)N[C@H]1CCCC[C@@H]1OCc1ccccc1` [Compound 85] the IC50 was 0.1 to 1 µM.
`O=C(Cn1nc(NS(=O)(=O)c2cccc(Cl)c2)cc1C(=O)N[C@H]1CCCC[C@@H]1OCc1ccccc1)N[C@H]1CCCC[C@@H]1OCc1ccccc1` [Compound 80] showed an IC50 of 0.1 to 1 µM.
With `O=C(Cn1nc(C(=O)NCc2cccnc2)cc1C(=O)N[C@H]1CCCC[C@@H]1OCc1ccccc1)N[C@H]1CCCC[C@@H]1OCc1ccccc1` [Compound 142] the IC50 was 0.1 to 1 µM.
For `CCOC(=O)c1cc(C(=O)N[C@@H]2CCCC[C@@H]2OCc2ccccc2)n(CC(=O)N[C@H]2CCCC[C@H]2OCc2ccccc2)n1` [Compound 139], the IC50 was 0.1 to 1 µM.
`CC(=O)c1cc(C(=O)N[C@H]2CCCC[C@@H]2OCc2ccccc2)n(CC(=O)N[C@H]2CCCC[C@@H]2OCc2ccccc2)n1` [Compound 126] showed an IC50 of 0.1 to 1 µM.
For `O=C(Cn1nc(C(=O)O)cc1C(=O)N[C@H]1CCCC[C@@H]1OCc1ccccc1)Nc1ncccc1Oc1ccccc1` [Compound 160], the IC50 was 0.1 to 1 µM.
With `O=C(Cn1nc(C(=O)NCCCc2ccccc2)cc1C(=O)N[C@H]1CCCC[C@@H]1OCc1ccccc1)N[C@H]1CCCC[C@@H]1OCc1ccccc1` [Compound 104] the IC50 was 0.1 to 1 µM.
Compound `O=C(Cn1nc(C(=O)N2CCN(c3ccccc3)CC2)cc1C(=O)N[C@H]1CCCC[C@@H]1OCc1ccccc1)N[C@H]1CCCC[C@@H]1OCc1ccccc1` [Compound 140] has an IC50 of 0.1 to 1 µM.
With `CN(C(=O)Cn1nc(C(=O)O)cc1C(=O)N(C)[C@H]1CCCC[C@@H]1OCc1ccccc1)[C@H]1CCCC[C@@H]1OCc1ccccc1` [Compound 158] the IC50 was 0.1 to 1 µM.
`O=C(Cn1nc(C(=O)N(c2ccccc2)c2ccccc2)cc1C(=O)N[C@H]1CCCC[C@@H]1OCc1ccccc1)N[C@H]1CCCC[C@@H]1OCc1ccccc1` [Compound 159] showed an IC50 of 0.1 to 1 µM.
`CS(=O)(=O)Nc1cc(C(=O)N[C@H]2CCCC[C@@H]2OCc2ccccc2)n(CC(=O)N[C@H]2CCCC[C@@H]2OCc2ccccc2)n1` [Compound 60] was tested, and the IC50 was 0.1 to 1 µM.
`O=C(Cn1nc(C(=O)NCCc2ccccc2)cc1C(=O)N[C@H]1CCCC[C@@H]1OCc1ccccc1)N[C@H]1CCCC[C@@H]1OCc1ccccc1` [Compound 131] was tested, and the IC50 was 0.1 to 1 µM.
`O=C(Cn1nc(NS(=O)(=O)c2cc(Cl)cc(Cl)c2O)cc1C(=O)N[C@H]1CCCC[C@@H]1OCc1ccccc1)N[C@H]1CCCC[C@@H]1OCc1ccccc1` [Compound 108] was tested, and the IC50 was 0.1 to 1 µM.
In the case of `O=C(Cn1nc(C(=O)NOCc2ccccc2)cc1C(=O)N[C@H]1CCCC[C@@H]1OCc1ccccc1)N[C@H]1CCCC[C@@H]1OCc1ccccc1` [Compound 53], the IC50 is reported as 0.1 to 1 µM.
In the case of `O=C(Cn1nc(C(=O)N2CCOCC2)cc1C(=O)N[C@H]1CCCC[C@@H]1OCc1ccccc1)N[C@H]1CCCC[C@@H]1OCc1ccccc1` [Compound 150], the IC50 is reported as 0.1 to 1 µM.
In the case of `O=C(Cn1nc(C(=O)NC2CCc3ccccc32)cc1C(=O)N[C@H]1CCCC[C@@H]1OCc1ccccc1)N[C@H]1CCCC[C@@H]1OCc1ccccc1` (some centres unmarked) [Compound 107], the IC50 is reported as 0.1 to 1 µM.
For `CN(C(=O)Cn1nc(C(=O)O)cc1C(=O)N[C@H]1CCCC[C@@H]1OCc1ccccc1)[C@H]1CCCC[C@@H]1OCc1ccccc1` [Compound 123], the IC50 was 0.1 to 1 µM.
In the case of `O=C(Cn1nc(C(=O)NCc2cccs2)cc1C(=O)N[C@H]1CCCC[C@@H]1OCc1ccccc1)N[C@H]1CCCC[C@@H]1OCc1ccccc1` [Compound 92], the IC50 is reported as 0.1 to 1 µM.

Same assay, conditions: Δ21 Activity (IC50 μM), 50 nM NS5B (Δ21), class symbols
In the case of `CCOC(CCCNC(=O)c1cc(C(=O)N[C@H]2CCCC[C@@H]2OCc2ccccc2)n(CC(=O)NC2CCCC[C@@H]2OCc2ccccc2)n1)OCC` (some centres unmarked) [Compound 195], the IC50 is reported as > 1 µM.
For `O=C(Cn1nc(C(=O)O)cc1C(=O)N[C@H]1CCCC[C@@H]1OCc1ccccc1)NC1CCC[C@@H]1Sc1ccccc1` (some centres unmarked) [Compound 169], the IC50 was > 1 µM.
`COc1ccc(CNC(=O)c2cc(C(=O)N[C@H]3CCCC[C@@H]3OCc3ccccc3)n(CC(=O)N[C@H]3CCCC[C@@H]3OCc3ccccc3)n2)cc1` [Compound 40] gave an IC50 of 0.05 to 0.1 µM.
For `O=C(Cn1nc(C(=O)NC2CCCc3ccccc32)cc1C(=O)N[C@H]1CCCC[C@@H]1OCc1ccccc1)N[C@H]1CCCC[C@@H]1OCc1ccccc1` (some centres unmarked) [Compound 173], the IC50 was > 1 µM.
`Cc1ccc(OCC2CCCC2)c(NC(=O)Cn2nc(C(=O)O)cc2C(=O)N[C@H]2CCCC[C@@H]2OCc2ccccc2)c1` [Compound 34] was tested, and the IC50 was 0.05 to 0.1 µM.
In the case of `Cc1ccc(OCC2CCCC2)c(NC(=O)c2cc(C(=O)O)nn2CC(=O)N[C@H]2CCCC[C@@H]2OCc2ccccc2)c1` [Compound 2], the IC50 is reported as < 0.05 µM.
With `O=C(Cn1nc(C(=O)NCCO)cc1C(=O)N[C@H]1CCCC[C@@H]1OCc1ccccc1)N[C@H]1CCCC[C@@H]1OCc1ccccc1` [Compound 191] the IC50 was > 1 µM.
`O=C(Cn1nc(NS(=O)(=O)c2ccc(Br)c(C(=O)O)c2)cc1C(=O)N[C@H]1CCCC[C@@H]1OCc1ccccc1)N[C@H]1CCCC[C@@H]1OCc1ccccc1` [Compound 17] was tested, and the IC50 was < 0.05 µM.
For `Cc1ccc(OCC2CCCCC2)c(NC(=O)c2cc(C(=O)O)nn2CC(=O)N[C@H]2CCCC[C@@H]2OCc2ccccc2)c1` [Compound 5], the IC50 was < 0.05 µM.
`COc1ccc(NC(=O)c2cc(C(=O)Nc3ccccc3OCc3ccccc3)n(CC(=O)N[C@H]3CCCC[C@@H]3OCc3ccccc3)n2)cc1` [Compound 29] was tested, and the IC50 was 0.05 to 0.1 µM.
`CN(C)C(=O)c1cc(C(=O)N[C@H]2CCCC[C@@H]2OCc2ccccc2)n(CC(=O)NC2CCCC[C@@H]2OCc2ccccc2)n1` (some centres unmarked) [Compound 197] was tested, and the IC50 was > 1 µM.
In the case of `C[C@H](NC(=O)c1cc(C(=O)N[C@H]2CCCC[C@@H]2OCc2ccccc2)n(CC(=O)N[C@H]2CCCC[C@@H]2OCc2ccccc2)n1)c1cccc2ccccc12` [Compound 27], the IC50 is reported as 0.05 to 0.1 µM.
`CCOC(=O)c1cc(C(=O)N(C)[C@H]2CCCC[C@@H]2OCc2ccccc2)n(CC(=O)N(C)C2CCCC[C@@H]2OCc2ccccc2)n1` (some centres unmarked) [Compound 210] was tested, and the IC50 was > 1 µM.
`O=C(Cn1nc(C(=O)O)cc1C(=O)Nc1ccccc1OCc1ccccc1)N[C@H]1CCCC[C@@H]1OCc1ccccc1` [Compound 39] was tested, and the IC50 was 0.05 to 0.1 µM.
In the case of `O=C(Cn1nc(C(=O)NCc2ccc(Cl)cc2)cc1C(=O)N[C@H]1CCCC[C@@H]1OCc1ccccc1)N[C@H]1CCCC[C@@H]1OCc1ccccc1` [Compound 46], the IC50 is reported as 0.05 to 0.1 µM.
With `CCOC(=O)c1cc(C(=O)N[C@H]2CCCC[C@@H]2OCc2ccccc2)n(C(C)C(=O)N[C@H]2CCCC[C@@H]2OCc2ccccc2)n1` (some centres unmarked) [Compound 186] the IC50 was > 1 µM.
In the case of `N#Cc1ccc(S(=O)(=O)Nc2cc(C(=O)N[C@H]3CCCC[C@@H]3OCc3ccccc3)n(CC(=O)N[C@H]3CCCC[C@@H]3OCc3ccccc3)n2)cc1` [Compound 42], the IC50 is reported as 0.05 to 0.1 µM.
Compound `O=C(Cn1nc(NS(=O)(=O)c2ccc(I)cc2)cc1C(=O)N[C@H]1CCCC[C@@H]1OCc1ccccc1)N[C@H]1CCCC[C@@H]1OCc1ccccc1` [Compound 19] has an IC50 of 0.05 to 0.1 µM.
With `CCOC(=O)c1cc(C(=O)N[C@H]2CCCC[C@@H]2NCc2ccccc2)n(CC(=O)N[C@H]2CCCC[C@@H]2OCc2ccccc2)n1` [Compound 174] the IC50 was > 1 µM.
With `Nc1cc(C(=O)N[C@H]2CCCC[C@@H]2OCc2ccccc2)n(CC(=O)NC2CCCC[C@@H]2OCc2ccccc2)n1` (some centres unmarked) [Compound 205] the IC50 was > 1 µM.
Compound `Cc1cc(Oc2ccccc2NC(=O)Cn2nc(C(=O)O)cc2C(=O)N[C@H]2CCCC[C@@H]2OCc2ccccc2)ccc1Cl` [Compound 23] has an IC50 of 0.05 to 0.1 µM.
`O=C(Cn1nc(NS(=O)(=O)c2ccc(Cl)cc2)cc1C(=O)N[C@H]1CCCC[C@@H]1OCc1ccccc1)N[C@H]1CCCC[C@@H]1OCc1ccccc1` [Compound 11] was tested, and the IC50 was < 0.05 µM.

Same assay, conditions: Δ21 Activity (IC50 μM), 50 nM NS5B (Δ21), numeric values
`Cc1ccc(OCC2CCCCC2)c(NC(=O)c2cc(C(=O)O)nn2CC(=O)N[C@H]2CCCC[C@@H]2OCc2ccccc2)c1` [drawing 244] gave an IC50 of 0.033 µM.
`O=C(Cn1nc(NS(=O)(=O)c2ccc(Br)cc2)cc1C(=O)N[C@H]1CCCC[C@@H]1OCc1ccccc1)N[C@H]1CCCC[C@@H]1OCc1ccccc1` [drawing 252] showed an IC50 of 0.041 µM.
`O=C(Cn1nc(C(=O)O)cc1C(=O)Nc1cc(C(F)(F)F)ccc1OCc1ccccc1)N[C@H]1CCCC[C@@H]1OCc1ccccc1` [drawing 253] gave an IC50 of 0.041 µM.
Compound `O=C(Cn1nc(-c2nnn[nH]2)cc1C(=O)N[C@H]1CCCC[C@@H]1OCc1ccccc1)N[C@H]1CCCC[C@@H]1OCc1ccccc1` has an IC50 of 0.05 µM.
Compound `O=C(Cn1nc(C(=O)O)cc1C(=O)Nc1cc(Br)ccc1OCC1CCCCC1)N[C@H]1CCCC[C@@H]1OCc1ccccc1` [drawing 251] has an IC50 of 0.037 µM.
